Laboratory results published in paper PMC5218480 (PLoS ONE, 2017).

Test system: MV-4-11 cells
Test: Gene expression microarray analysis (Affymetrix PrimeView) and GSEA
Format: cell-based, human
Parameters: RFU PODN (11730768_x_at) / Fold change /veh PODN (11730768_x_at) / RFU LINC00158 (11744669_a_at) / Fold change /veh LINC00158 (11744669_a_at) / RFU DUSP10 (11751237_a_at) / Fold change /veh DUSP10 (11751237_a_at) / RFU ID3 (11757404_x_at) / Fold change /veh ID3 (11757404_x_at) / RFU PLEKHG5 (11737974_s_at) / Fold change /veh PLEKHG5 (11737974_s_at) / RFU LRRC4B (11730491_at) / Fold change /veh LRRC4B (11730491_at) / RFU GIMAP4 (11747438_a_at) / Fold change /veh GIMAP4 (11747438_a_at) / RFU KRT8 (11758183_x_at) / Fold change /veh KRT8 (11758183_x_at) / RFU CNN1 (11734310_a_at) / Fold change /veh CNN1 (11734310_a_at) / RFU VPS37D (11726825_at) / Fold change /veh VPS37D (11726825_at) / RFU C10orf10 (11716522_x_at) / Fold change /veh C10orf10 (11716522_x_at) / RFU KIR2DL2 /// KIR2DL4 /// KIR2DL5A /// KIR2DL5B /// KIR2DS1 /// KIR2DS2 /// KIR2DS3 /// KIR2DS4 /// KIR3DL3 /// KIR3DL3 /// KIR3DS1 (11738374_at) / Fold change /veh KIR2DL2 /// KIR2DL4 /// KIR2DL5A /// KIR2DL5B /// KIR2DS1 /// KIR2DS2 /// KIR2DS3 /// KIR2DS4 /// KIR3DL3 /// KIR3DL3 /// KIR3DS1 (11738374_at) / RFU C1QL1 (11718748_at) / Fold change /veh C1QL1 (11718748_at) / RFU TMPRSS4 (11747572_a_at) / Fold change /veh TMPRSS4 (11747572_a_at) / RFU HAMP (11756126_x_at) / Fold change /veh HAMP (11756126_x_at) / RFU RNFT2 (11725882_a_at) / Fold change /veh RNFT2 (11725882_a_at) / RFU NR4A2 (11747474_a_at) / Fold change /veh NR4A2 (11747474_a_at) / RFU ABCC12 (11746883_a_at) / Fold change /veh ABCC12 (11746883_a_at) / RFU TMEM136 (11760407_x_at) / Fold change /veh TMEM136 (11760407_x_at) / RFU CLDN22 /// WWC2 (11732394_at) / Fold change /veh CLDN22 /// WWC2 (11732394_at) / RFU HLA-DPB1 (11760878_x_at) / Fold change /veh HLA-DPB1 (11760878_x_at) / RFU SPINT1 (11716480_a_at) / Fold change /veh SPINT1 (11716480_a_at) / RFU GAP43 (11754022_s_at) / Fold change /veh GAP43 (11754022_s_at) / RFU A4GNT (11735810_at) / Fold change /veh A4GNT (11735810_at) / RFU PRB3 (11715151_x_at) / Fold change /veh PRB3 (11715151_x_at) / RFU TUBB4B (11761932_at) / Fold change /veh TUBB4B (11761932_at) / RFU CAPN14 (11732068_a_at) / Fold change /veh CAPN14 (11732068_a_at) / RFU TMCC2 (11721928_a_at) / Fold change /veh TMCC2 (11721928_a_at) / RFU IRGQ (11745062_a_at) / Fold change /veh IRGQ (11745062_a_at) / RFU FAM174B (11720279_a_at) / Fold change /veh FAM174B (11720279_a_at) / RFU TMPRSS4 (11748680_a_at) / Fold change /veh TMPRSS4 (11748680_a_at) / RFU FAM212B (11763350_a_at) / Fold change /veh FAM212B (11763350_a_at) / RFU PLEKHG5 (11743358_a_at) / Fold change /veh PLEKHG5 (11743358_a_at) / RFU ZSCAN30 (11745921_a_at) / Fold change /veh ZSCAN30 (11745921_a_at) / RFU CMKLR1 (11741424_a_at) / Fold change /veh CMKLR1 (11741424_a_at) / RFU LOC101060620 /// MAPK8IP1 (11723275_at) / Fold change /veh LOC101060620 /// MAPK8IP1 (11723275_at) / RFU SPTSSB (11747773_x_at) / Fold change /veh SPTSSB (11747773_x_at) / RFU PRSS12 (11739890_at) / Fold change /veh PRSS12 (11739890_at) / RFU BIN1 (11741810_x_at) / Fold change /veh BIN1 (11741810_x_at) / RFU WNT11 (11732464_a_at) / Fold change /veh WNT11 (11732464_a_at) / RFU C10orf10 (11716521_a_at) / Fold change /veh C10orf10 (11716521_a_at) / RFU C5orf56 (11738089_at) / Fold change /veh C5orf56 (11738089_at) / RFU CYB561 (11721691_x_at) / Fold change /veh CYB561 (11721691_x_at) / RFU ANKRD19P (11752326_a_at) / Fold change /veh ANKRD19P (11752326_a_at) / RFU OR2T12 /// OR2T33 /// OR2T8 (11738714_s_at) / Fold change /veh OR2T12 /// OR2T33 /// OR2T8 (11738714_s_at) / RFU VCAN (11748164_a_at) / Fold change /veh VCAN (11748164_a_at) / RFU JSRP1 (11732532_at) / Fold change /veh JSRP1 (11732532_at) / RFU KRTAP10-11 (11738290_x_at) / Fold change /veh KRTAP10-11 (11738290_x_at) / RFU MYO3A (11730013_a_at) / Fold change /veh MYO3A (11730013_a_at) / RFU EBF3 (11725865_a_at) / Fold change /veh EBF3 (11725865_a_at) / RFU CAMK2N1 (11719241_x_at) / Fold change /veh CAMK2N1 (11719241_x_at) / RFU C5orf56 (11738088_a_at) / Fold change /veh C5orf56 (11738088_a_at) / RFU OLFML3 (11715873_a_at) / Fold change /veh OLFML3 (11715873_a_at) / RFU LOC100653217 /// NTM (11731650_a_at) / Fold change /veh LOC100653217 /// NTM (11731650_a_at) / RFU MAPK11 (11762145_a_at) / Fold change /veh MAPK11 (11762145_a_at) / RFU FIZ1 (11724087_x_at) / Fold change /veh FIZ1 (11724087_x_at) / RFU OASL (11726364_x_at) / Fold change /veh OASL (11726364_x_at) / RFU SOX15 (11748057_x_at) / Fold change /veh SOX15 (11748057_x_at) / RFU CD79A (11719716_a_at) / Fold change /veh CD79A (11719716_a_at) / RFU HIST1H1D (11736915_at) / Fold change /veh HIST1H1D (11736915_at) / RFU CASKIN2 (11723855_a_at) / Fold change /veh CASKIN2 (11723855_a_at) / RFU LOC730098 (11760151_x_at) / Fold change /veh LOC730098 (11760151_x_at) / RFU OR4N2 (11742367_at) / Fold change /veh OR4N2 (11742367_at) / RFU PRRT2 (11749266_a_at) / Fold change /veh PRRT2 (11749266_a_at) / RFU SNX32 (11753110_a_at) / Fold change /veh SNX32 (11753110_a_at) / RFU CDHR5 (11726645_a_at) / Fold change /veh CDHR5 (11726645_a_at) / RFU RCAN1 (11760418_a_at) / Fold change /veh RCAN1 (11760418_a_at) / RFU FAM167A (11723789_a_at) / Fold change /veh FAM167A (11723789_a_at) / RFU FAM26E (11764081_at) / Fold change /veh FAM26E (11764081_at) / RFU ISYNA1 (11749810_s_at) / Fold change /veh ISYNA1 (11749810_s_at) / RFU ACY1 (11761880_at) / Fold change /veh ACY1 (11761880_at) / RFU 11764098_at / Fold change /veh 11764098_at / RFU SAMD14 (11745864_x_at) / Fold change /veh SAMD14 (11745864_x_at) / RFU NPB (11741838_a_at) / Fold change /veh NPB (11741838_a_at) / RFU TMPRSS6 (11731388_a_at) / Fold change /veh TMPRSS6 (11731388_a_at) / RFU KRTAP10-2 (11738614_at) / Fold change /veh KRTAP10-2 (11738614_at) / RFU ARHGAP8 /// PRR5-ARHGAP8 (11727945_x_at) / Fold change /veh ARHGAP8 /// PRR5-ARHGAP8 (11727945_x_at) / RFU KRTAP5-7 /// NADSYN1 (11734609_at) / Fold change /veh KRTAP5-7 /// NADSYN1 (11734609_at) / RFU RASL12 (11751679_a_at) / Fold change /veh RASL12 (11751679_a_at) / RFU CDKN2B (11736163_a_at) / Fold change /veh CDKN2B (11736163_a_at) / RFU PRF1 (11729649_at) / Fold change /veh PRF1 (11729649_at) / RFU, ZNF638 /// ZNF638-IT1 / Fold change vs veh, ZNF638 /// ZNF638-IT1 / RFU, PANK3 / Fold change vs veh, PANK3 / RFU, SH3YL1 / Fold change vs veh, SH3YL1 / RFU, ZEB2 / Fold change vs veh, ZEB2 / RFU, NRIP1 / Fold change vs veh, NRIP1 / RFU, PTTG1IP / Fold change vs veh, PTTG1IP / RFU, CAPN2 / Fold change vs veh, CAPN2 / RFU, MED14 / Fold change vs veh, MED14 / RFU, SNORA58 / Fold change vs veh, SNORA58 / RFU, C1orf63 / Fold change vs veh, C1orf63 / RFU, LRRFIP1 / Fold change vs veh, LRRFIP1 / RFU, NDUFAF7 / Fold change vs veh, NDUFAF7 / RFU, SLC12A2 / Fold change vs veh, SLC12A2 / RFU, IBTK / Fold change vs veh, IBTK / RFU, ESF1 / Fold change vs veh, ESF1 / Fold change vs veh, TMEM50B / RFU, TAOK1 / Fold change vs veh, TAOK1 / RFU, ACBD3 / Fold change vs veh, ACBD3 / RFU, TMA16 / Fold change vs veh, TMA16 / RFU, RWDD3 / Fold change vs veh, RWDD3 / RFU, BCAT1 / Fold change vs veh, BCAT1 / RFU, EDEM3 / Fold change vs veh, EDEM3 / RFU, TMEM33 / Fold change vs veh, TMEM33 / RFU, WDR75 / Fold change vs veh, WDR75 / RFU, AHCTF1 / Fold change vs veh, AHCTF1 / RFU, TFRC / Fold change vs veh, TFRC / RFU, ZDHHC17 / Fold change vs veh, ZDHHC17 / RFU, NOM1 / Fold change vs veh, NOM1 / RFU, ARL8B / Fold change vs veh, ARL8B / RFU, ZBTB11 / Fold change vs veh, ZBTB11 / RFU, TAMM41 / Fold change vs veh, TAMM41 / RFU, KIAA1704 /// LOC100996395 / Fold change vs veh, KIAA1704 /// LOC100996395 / RFU, ING1 / Fold change vs veh, ING1 / RFU, TRMT61B / Fold change vs veh, TRMT61B / RFU, FUBP3 / Fold change vs veh, FUBP3 / RFU, TP53 / Fold change vs veh, TP53 / RFU, TNKS2 / Fold change vs veh, TNKS2 / RFU, ZFP14 / Fold change vs veh, ZFP14 / RFU, ACTR2 / Fold change vs veh, ACTR2 / RFU, PPP3R1 / Fold change vs veh, PPP3R1 / RFU, PIK3R1 / Fold change vs veh, PIK3R1 / RFU, HNRNPA1 / Fold change vs veh, HNRNPA1 / RFU, RNF170 / Fold change vs veh, RNF170 / RFU, ZNF28 / Fold change vs veh, ZNF28 / RFU, RNGTT / Fold change vs veh, RNGTT / RFU, OGT / Fold change vs veh, OGT / RFU, BRD1 / Fold change vs veh, BRD1 / RFU, MARS / Fold change vs veh, MARS / RFU, ZNF655 / Fold change vs veh, ZNF655 / RFU, FAHD1 / Fold change vs veh, FAHD1 / RFU, BDP1 / Fold change vs veh, BDP1 / RFU, LRRCC1 / Fold change vs veh, LRRCC1 / RFU, ARID1A / Fold change vs veh, ARID1A / RFU, ZNF146 / Fold change vs veh, ZNF146 / RFU, ZNF330 / Fold change vs veh, ZNF330 / RFU, GPN3 / Fold change vs veh, GPN3 / RFU, C9orf123 / Fold change vs veh, C9orf123 / RFU, N4BP2L2 / Fold change vs veh, N4BP2L2 / RFU, ARFIP1 / Fold change vs veh, ARFIP1 / RFU, FAM179B / Fold change vs veh, FAM179B / RFU, BCL10 / Fold change vs veh, BCL10 / RFU, UHRF1BP1L / Fold change vs veh, UHRF1BP1L / RFU, BET1 / Fold change vs veh, BET1 / RFU, CNOT2 / Fold change vs veh, CNOT2 / RFU, ZNF268 / Fold change vs veh, ZNF268 / Fold change vs veh, ZNF507 / RFU, DGCR2 / Fold change vs veh, DGCR2 / RFU, WDSUB1 / Fold change vs veh, WDSUB1 / Fold change vs veh, HSP90B1 /// MIR3652 / RFU, ADSS / Fold change vs veh, ADSS / RFU, GK / Fold change vs veh, GK / RFU, ZNF148 / Fold change vs veh, ZNF148 / RFU, TAF9 / Fold change vs veh, TAF9 / RFU, SLC1A5 / Fold change vs veh, SLC1A5 / RFU, SLMO2 / Fold change vs veh, SLMO2 / RFU, ABCC4 / Fold change vs veh, ABCC4 / RFU, LOC101060439 /// RAP1B / Fold change vs veh, LOC101060439 /// RAP1B / RFU, RFX7 / Fold change vs veh, RFX7 / RFU, GTPBP10 / Fold change vs veh, GTPBP10 / RFU, CNEP1R1 / Fold change vs veh, CNEP1R1 / RFU, BIVM-ERCC5 /// ERCC5 / Fold change vs veh, BIVM-ERCC5 /// ERCC5 / RFU, ILF3 / Fold change vs veh, ILF3 / RFU 11762660_at / Fold change /veh 11762660_at / RFU VCAN (11757783_s_at) / Fold change /veh VCAN (11757783_s_at) / RFU DDX43 (11728927_at) / Fold change /veh DDX43 (11728927_at) / RFU KRT8 (11758188_x_at) / Fold change /veh KRT8 (11758188_x_at) / RFU NKD1 (11759106_at) / Fold change /veh NKD1 (11759106_at) / RFU SRD5A1 (11742802_a_at) / Fold change /veh SRD5A1 (11742802_a_at) / RFU TPSAB1 /// TPSB2 (11721975_s_at) / Fold change /veh TPSAB1 /// TPSB2 (11721975_s_at) / RFU GSTM3 (11746129_a_at) / Fold change /veh GSTM3 (11746129_a_at) / RFU IL23R (11737362_x_at) / Fold change /veh IL23R (11737362_x_at) / RFU TMEM51 (11727254_a_at) / Fold change /veh TMEM51 (11727254_a_at) / RFU PIWIL2 (11732686_x_at) / Fold change /veh PIWIL2 (11732686_x_at) / RFU ORM1 (11744905_x_at) / Fold change /veh ORM1 (11744905_x_at) / RFU CCDC152 (11743942_at) / Fold change /veh CCDC152 (11743942_at) / RFU ECM1 (11717891_a_at) / Fold change /veh ECM1 (11717891_a_at) / RFU IL23R (11748794_a_at) / Fold change /veh IL23R (11748794_a_at) / RFU TNFAIP8L3 (11732012_x_at) / Fold change /veh TNFAIP8L3 (11732012_x_at) / RFU MBOAT4 (11741988_at) / Fold change /veh MBOAT4 (11741988_at) / RFU 11764193_at / Fold change /veh 11764193_at / RFU TMEM53 (11763286_at) / Fold change /veh TMEM53 (11763286_at) / RFU MAGEB2 (11727129_at) / Fold change /veh MAGEB2 (11727129_at) / RFU TMEM200A (11744735_a_at) / Fold change /veh TMEM200A (11744735_a_at) / RFU CCDC152 (11751479_a_at) / Fold change /veh CCDC152 (11751479_a_at) / RFU FAM211A (11726209_a_at) / Fold change /veh FAM211A (11726209_a_at) / RFU RGS16 (11746705_a_at) / Fold change /veh RGS16 (11746705_a_at) / RFU VCAN (11755009_s_at) / Fold change /veh VCAN (11755009_s_at) / RFU RHOB (11743442_s_at) / Fold change /veh RHOB (11743442_s_at) / RFU RGS16 (11720943_a_at) / Fold change /veh RGS16 (11720943_a_at) / RFU RGS16 (11720944_at) / Fold change /veh RGS16 (11720944_at) / RFU, VPS4B / Fold change vs veh, VPS4B / RFU, CREB1 / Fold change vs veh, CREB1 / RFU, DNAJC13 / Fold change vs veh, DNAJC13 / RFU, GNAQ / Fold change vs veh, GNAQ / RFU, CDK5R1 / Fold change vs veh, CDK5R1 / RFU, ZRANB3 / Fold change vs veh, ZRANB3 / RFU, CUL4A / Fold change vs veh, CUL4A / RFU, CCNY / Fold change vs veh, CCNY / RFU, UFL1 / Fold change vs veh, UFL1 / RFU, COG3 / Fold change vs veh, COG3 / RFU, DIAPH2 / Fold change vs veh, DIAPH2 / RFU, SKA2 / Fold change vs veh, SKA2 / RFU, AFF3 / Fold change vs veh, AFF3 / RFU, LMF1 / Fold change vs veh, LMF1 / RFU, IPO11 / Fold change vs veh, IPO11 / RFU, DFFB / Fold change vs veh, DFFB / RFU, FOXP1 / Fold change vs veh, FOXP1 / RFU, CARD8 / Fold change vs veh, CARD8 / RFU, STRN3 / Fold change vs veh, STRN3 / RFU, ADK / Fold change vs veh, ADK / RFU, RASSF2 / Fold change vs veh, RASSF2 / RFU, WIPF1 / Fold change vs veh, WIPF1 / RFU, LARP1B / Fold change vs veh, LARP1B / RFU, RASA1 / Fold change vs veh, RASA1 / RFU, RB1 / Fold change vs veh, RB1 / RFU, PPFIA1 / Fold change vs veh, PPFIA1 / RFU, MAT2A / Fold change vs veh, MAT2A / RFU, CCT5 / Fold change vs veh, CCT5 / RFU, WDR92 / Fold change vs veh, WDR92 / RFU, CUX1 / Fold change vs veh, CUX1 / RFU, TTC7A / Fold change vs veh, TTC7A / RFU, TMEM135 / Fold change vs veh, TMEM135 / RFU, DEPTOR / Fold change vs veh, DEPTOR / RFU, CPM / Fold change vs veh, CPM / RFU, DNAJB6 / Fold change vs veh, DNAJB6 / RFU, CACNA2D3 / Fold change vs veh, CACNA2D3 / RFU, DTX4 / Fold change vs veh, DTX4 / RFU, TFCP2 / Fold change vs veh, TFCP2 / RFU, GMCL1 /// GMCL1P1 / Fold change vs veh, GMCL1 /// GMCL1P1 / RFU, AEBP2 / Fold change vs veh, AEBP2 / RFU, SNHG1 /// SNORD22 /// SNORD25 /// SNORD26 /// SNORD27 /// SNORD28 /// SNORD29 /// SNORD31 / Fold change vs veh, SNHG1 /// SNORD22 /// SNORD25 /// SNORD26 /// SNORD27 /// SNORD28 /// SNORD29 /// SNORD31 / Fold change (Aza/veh), C12orf56 (ProbeSet 11735607_a_at) / Fold change (ACY-1035/veh), C12orf56 (ProbeSet 11735607_a_at) / Fold change (Aza/veh), FGFR1OP (ProbeSet 11751329_s_at) / Fold change (ACY-1035/veh), FGFR1OP (ProbeSet 11751329_s_at) / Fold change (Aza/veh), VPS36 (ProbeSet 11739960_a_at) / Fold change (ACY-1035/veh), VPS36 (ProbeSet 11739960_a_at) / RFU SYPL1 (11715823_x_at) / Fold change /veh SYPL1 (11715823_x_at) / RFU IGFBP7 (11715501_s_at) / Fold change /veh IGFBP7 (11715501_s_at) / RFU REEP3 (11722064_at) / Fold change /veh REEP3 (11722064_at) / RFU IGLL1 (11728026_x_at) / Fold change /veh IGLL1 (11728026_x_at): dose or concentration left out as unconfirmed
Conditions: MV-4-11 cells, 48 hours

Nc1ncn([C@@H]2O[C@H](CO)[C@@H](O)[C@H]2O)c(=O)n1 [azacitidine]
Fold change /veh TUBB4B (11761932_at): 1.00
